Experimental data: patent US20120202885A1, “METHODS, ASSAYS AND COMPOSITIONS FOR TREATING RETINOL-RELATED DISEASES” (ReVision Therapeutics, Inc., priority 2004, published 2012)

Tests used:
ABCA4 null mutant mice = experiment: HPR given i.p. to ABCA4 null mutant mice for 28 days: serum retinol, ocular retinoids and A2E; type: in vivo
Description: In order to explore the role of HPR in the visual cycle, the in vivo effects of HPR in mice have been examined. Thus, HPR was administered to ABCA4 null mutant mice (5-20 mg/kg, i.p. in DMSO) for periods of 28 days. Control mice received only the DMSO vehicle. At the end of the treatment period, the concentrations of retinol and HPR in serum and retinoid content in ocular tissues was measured. […] Thus, the calculated percent reduction for each of the measured retinoids, and A2E, was nearly identical (see FIG. 2).
Genetic crosses of RBP4^−/− mice with ABCA4^−/− mice was undertaken to examine the role of RBP in mediation of retinol levels in serum and ocular tissue.

wild type mice = experiment: HPR given to wild type mice for 5 days, then illumination: serum and ocular retinoids; type: in vivo; conditions: 20 mg/kg
Description: In order to ensure that the observed effects of HPR in ABCA4 null mice were not due to the genetic mutation, HPR (20 mg/kg, i.p. in DMSO) was administered to wild type mice for 5 days. Control mice received only the DMSO vehicle. On the final day of HPR treatment, the mice were exposed to constant illumination (1000 lux for 10 min) in order “stimulate” the visual cycle to generate visual chromophore. Immediately following the illumination period, the animals were sacrificed and the concentrations of retinoids in serum and ocular tissue were determined. […] As in the previous study, HPR caused a significant reduction in serum retinol (˜55%), ocular retinol (˜40%) and ocular retinal (˜30%). Although HPR did accumulate within ocular tissues during the treatment period (˜5 μM), no effect on LRAT or Rpe65/isomerase activities was observed.

[1] = 14-day HPR dose response on serum retinol (LC/MS of serum extract); type: in vivo, mice; conditions: abca4 null mutant, mouse, serum, intraperitoneal; 20 mg/kg HPR; read-out: steady state concentration of HPR in serum
Description: (§1) Initial studies began by examining the effect of HPR on serum retinol. Animals were divided into three groups and given either DMSO, 10 mg/kg HPR, or 20 mg/kg HPR for 14 days. At the end of the study period, blood was collected from the animals, sera were prepared and an acetonitrile extract of the serum was analyzed by reverse phase LC/MS. UV-visible spectral and mass/charge analyses were performed to confirm the identity of the eluted peaks. Sample chromatograms obtained from these analyses are shown: FIG. 7a.—extract from an abca4 null mutant mouse receiving HPR vehicle, DMSO; FIG. 7b.—10 mg/kg HPR; FIG. 7c.—20 mg/kg HPR. […] For 20 mg/kg HPR, serum retinol is decreased 72%, see FIG. 8. The steady state concentrations of retinol and HPR in serum (at 20 mg/kg HPR) were determined to be 2.11 μM and 1.75 μM, respectively.

abca4 null mutant mouse = experiment: as above; type: in vivo, mice; conditions: DMSO, 10 or 20 mg/kg HPR, 14 days
Description: as §1

[2] = target: T1, Retinol Binding Protein (RBP) (Homo sapiens, UniProt P02753); experiment: Competition binding assay of HPR against RBP-retinol by fluorescence quenching; conditions: physiological temperature; HPR 2 μM (FIG. 9b)
Excerpt: Based upon these findings, we sought to further explore the mechanism(s) of retinol reduction during HPR treatment. A tenable hypothesis is that HPR may displace retinol by competing at the retinol binding site on RBP. […] Therefore, one can measure displacement of retinol from the RBP holoprotein by observing decreases in both protein (340 nm) and retinol (470 nm) fluorescence. We performed a competition binding assay using RBP-retinol/HPR concentrations which were similar to those determined from the 14 day trial at 20 mg/kg HPR described above. […] In the control assays, decreases in retinol fluorescence were associated with concomitant increases in protein fluorescence, see FIG. 9a. This effect was determined to be due to temperature effects as the dissociation constant of RBP-retinol increases (decreased affinity) with increased time at 37 C.

[3] = target: T1, Retinol Binding Protein (RBP); experiment: Fluorescence quenching study of MPR binding to retinol binding protein; conditions: 1 μM ligand, 0.5 μM Apo-RBP
Description: Apo-RBP at 0.5 μM was incubated with 0, 0.25, 0.5, 1 and 2 μM of MPR in PBS at room temperature for 1 hour, respectively. As controls, the same concentration of Apo-RBP was also incubated with 1 μM of HPR or 1 μM of atROL. All mixtures contained 0.2% Ethanol (v/v). The emission spectra were measured between 290 nm to 550 nm with excitation wavelength at 280 nm and 3 nm bandpass.

ABCA4−/− mice = experiment: Drug holiday after 28 days of HPR: A2E and precursors in eyecup extracts (HPLC); type: in vivo; conditions: for A2E and precursor (A2PE-H2 and A2PE) levels: 10 mg/kg 28 days
Description: HPR (10 mg/kg in DMSO) was administered to ABCA4−/− mice daily for a period of 28 days. Control ABCA4−/− mice received only DMSO for the same period. […] Importantly, the observed reductions in lipofuscin autofluorescence persist long after cessation of HPR therapy. HPR (10 mg/kg), or DMSO, administration was discontinued following 28 days of treatment and re-evaluated A2E and precursor levels after 2 weeks and after 4 weeks.
We examined eyecup extracts by HPLC and employed detection by absorbance and fluorimetry. Identity of the indicated peaks was confirmed by on-line spectral analysis and by co-elution with authentic standards. […] Further, the A2E and precursor (A2PE-H2 and A2PE) levels after a […] or 28-day drug holiday remained at or near the levels immediately following 28 days of treatment (i.e., ca. 50% reduction relative to control), although after the 28-day drug holiday, the amount of A2E and precursor (A2PE-H2 and A2PE) had increased by a few percentage points relative to the 12-day drug holiday levels. […] It is clear that peak fluorescence tracks with the abundance of A2E, A2PE and A2PE-H2.

[4] = cited from earlier work
[5] = 5-20 mg/kg, i.p. in DMSO, 28 days

CC1=C(/C=C/C(C)=C/C=C/C(C)=C/C(=O)Nc2ccc(O)cc2)C(C)(C)CCC1 [HPR, N-(4-hydroxyphenyl)retinamide]
ocular retinoids and A2E (ABCA4 null mutant mice; [5]): commensurate reductions in ocular retinoids and A2E
serum retinol as a function of increasing serum HPR (ABCA4 null mutant mice; [5]): Profound reductions in serum retinol
reduction in serum RBP-retinol (ABCA4 null mutant mice; administered dose 10 mg/kg): 50-60%
inhibition of LRAT activity (ABCA4 null mutant mice; mice receiving acute and chronic doses): has not been observed
reduction in ocular retinal (wild type mice; i.p. in DMSO, wild type mice): ~30%
reduction in ocular retinol (wild type mice; i.p. in DMSO, wild type mice): ~40%
reduction in serum retinol (wild type mice; i.p. in DMSO, wild type mice): ~55%
inhibition in synthesis of retinyl esters or visual chromophore (wild type mice; i.p., 1000 lux for 10 min): no significant inhibition
effect on LRAT or Rpe65/isomerase activities (wild type mice; i.p., wild type mice): no effect
concentration at 14 days [1]: 1750 nM
serum retinol, dose dependence (abca4 null mutant mouse): dose-dependent reduction in serum retinol
displacement of retinol from the RBP-retinol holoprotein [2]: efficiently displaces retinol
binding to RBP [3]: bind to RBP
A2E and precursor (A2PE-H2 and A2PE) levels (ABCA4−/− mice; then 12-day drug holiday): remain significantly reduced relative to control mice
A2E and precursor (A2PE-H2 and A2PE) levels (ABCA4−/− mice; then 28-day drug holiday): remain significantly reduced relative to control mice
detection of HPR or HPR metabolites in the eyes (ABCA4−/− mice; 28-day drug holiday): unable to detect
reduction of A2E and precursors relative to control (ABCA4−/− mice; immediately following 28 days of treatment, level held after 12- or 28-day drug holiday): ca. 50%
serum retinol and RBP ([4]; Formelli et al., Torrisi et al.): reductions in serum retinol and RBP
reduction in circulating RBP and retinol ([4]; several investigators, Berni et al. 1993): established in vivo
